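Cultured in 96-well plates, cells were exposed to test compound for 48 hours across five concentrations. The concentration for 50% growth inhibition is given as GI50.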 Calls of active or inactive are those of the source. Rule as the data show it: active = GI50 up to about 1.1 µM and inactive = higher.
Columns and labels:
Experiment in all cases: growth of human tumour cells (NCI), 48 h
[1] = system: KM-20L2
[2] = system: HL-60
[3] = system: RPMI-8226
[4] = system: CAKI-1
[5] = system: SNB-75
[6] = system: DMS-273
[7] = system: M14
[8] = system: DLD-1
[9] = system: UACC-257
[10] = system: OVCAR-4
[11] = system: SK-MEL-5
[12] = system: Malme-3M
[13] = system: HT-29
[14] = system: EKVX
[15] = system: U-251
[16] = system: 786-0
[17] = system: OVCAR-3
[18] = system: HCC 2998

Measured: GI50

CCN(CC)Cc1cc(Nc2c3ccccc3nc3c4ccccc4n(C)c23)ccc1O
inactive: [1] 5.45 µM | [2] 3.46 µM | [3] 3.67 µM | [4] 11.2 µM | [5] 13.6 µM | [6] 5.64 µM | [7] 1.92 µM | [8] 6.76 µM | [9] 10.4 µM | [10] 14 µM | [11] 2.61 µM | [12] 13.7 µM | [13] 5.32 µM | [14] 15.6 µM | [15] 10.8 µM | [16] 3.76 µM

CCCCCCCCCCCCCCCCCCOCC1(COP(=O)([O-])OCC[N+](C)(C)C)CCCO1 (centres undefined)
inactive: [1] 3.26 µM | [2] 2.18 µM | [17] 4.22 µM | [3] 2.79 µM | [5] 5.56 µM | [6] 1.75 µM | [7] 3.14 µM | [8] 3.65 µM | [9] 13.9 µM | [10] 2.83 µM | [11] 14.4 µM | [12] 13.3 µM | [13] 4.41 µM | [15] 2.33 µM | [16] 3.73 µM | [18] 1.89 µM

Sc1ncnc2c1ncn2C1CCCO1 (centres undefined)
inactive: [1] > 100 µM | [2] > 100 µM | [17] 22.6 µM | [3] 99.5 µM | [4] > 100 µM | [5] 65.3 µM | [6] 76.2 µM | [7] 43.3 µM | [8] 89.9 µM | [10] 51.1 µM | [11] > 100 µM | [12] > 100 µM | [13] > 100 µM | [15] > 100 µM | [16] > 100 µM | [18] > 100 µM

CCC1OCCN1C(C)C (centres undefined)
inactive: [1] > 100 µM | [2] > 100 µM | [3] 60 µM | [6] 69.2 µM | [8] 92 µM | [9] 97.5 µM | [11] 70.8 µM | [12] 65.2 µM | [14] 26.2 µM | [15] > 100 µM | [16] > 100 µM | [18] > 100 µM

COc1ccc(Br)c(N/N=C2\CCCNC2=O)c1
inactive: [1] > 100 µM | [2] 68.5 µM | [17] > 100 µM | [3] 51.5 µM | [4] 36.3 µM | [5] 23.1 µM | [6] > 100 µM | [7] > 100 µM | [8] > 100 µM | [9] > 100 µM | [10] > 100 µM | [11] 96.6 µM | [12] > 100 µM | [13] > 100 µM | [14] 22.6 µM | [15] 86.3 µM | [16] > 100 µM | [18] > 100 µM

C=C1C2CCCC1C1(S(C)(=O)=O)CCCCC21O (centres undefined)
inactive: [1] > 100 µM | [17] > 100 µM | [3] > 100 µM | [4] > 100 µM | [5] > 100 µM | [6] > 100 µM | [7] > 100 µM | [8] > 100 µM | [9] > 100 µM | [10] > 100 µM | [11] > 100 µM | [12] > 100 µM | [13] > 100 µM | [14] > 100 µM | [15] > 100 µM | [16] > 100 µM | [18] > 100 µM

C[C@]12CCC[C@H](O)[C@H]1C[C@H](CO)CC2
inactive: [1] > 100 µM | [2] > 100 µM | [17] > 100 µM | [3] > 100 µM | [4] > 100 µM | [5] > 100 µM | [6] > 100 µM | [7] > 100 µM | [8] > 100 µM | [9] > 100 µM | [10] > 100 µM | [12] > 100 µM | [13] > 100 µM | [15] > 100 µM | [16] > 100 µM | [18] > 100 µM

COc1ccc(OC)c2c(C(=O)O)c(C(C)c3ccccc3)ccc12 (centres undefined)
inactive: [1] > 100 µM | [2] > 100 µM | [17] > 100 µM | [4] > 100 µM | [5] > 100 µM | [6] > 100 µM | [7] > 100 µM | [8] > 100 µM | [9] > 100 µM | [10] > 100 µM | [11] > 100 µM | [12] > 100 µM | [13] > 100 µM | [14] > 100 µM | [15] 91.4 µM | [16] > 100 µM | [18] > 100 µM

Cc1ccc(C(=O)NC2CCCCC2)cc1/N=N/N(C)C
inactive: [1] > 100 µM | [17] > 100 µM | [4] > 100 µM | [6] > 100 µM | [7] > 100 µM | [8] > 100 µM | [9] > 100 µM | [10] > 100 µM | [11] > 100 µM | [13] > 100 µM | [14] > 100 µM | [15] > 100 µM | [16] > 100 µM | [18] > 100 µM

CC(C)(C)C1=CC(=NNC(=S)NCc2ccccc2)C=C(C(C)(C)C)C1=O
inactive: [1] > 100 µM | [2] > 100 µM | [17] > 100 µM | [3] > 100 µM | [5] 27.9 µM | [6] > 100 µM | [7] > 100 µM | [8] 59.6 µM | [9] 91.6 µM | [10] 90.2 µM | [11] 37.6 µM | [12] > 100 µM | [13] 73.1 µM | [14] 89.3 µM | [15] 94.2 µM | [16] 55.6 µM | [18] 53.7 µM

CCOC(OCC)C(CC)[Se]c1ccccc1 (centres undefined)
inactive: [1] 19.5 µM | [2] 2.42 µM | [17] > 100 µM | [3] 18.3 µM | [4] > 100 µM | [5] 35.3 µM | [6] 14.1 µM | [7] 16 µM | [8] > 100 µM | [9] > 100 µM | [10] 13.3 µM | [11] > 100 µM | [12] 5.02 µM | [13] > 100 µM | [14] > 100 µM | [15] 2.25 µM | [16] 19.1 µM | [18] 35.2 µM

CC(N)C(=O)OCN1C(=O)C2C3C=CC(C2C1=O)C1C2C(=O)N(COC(=O)C(C)N)C(=O)C2C31 (centres undefined)
inactive: [1] 28.2 µM | [2] 29.8 µM | [17] 33.6 µM | [3] 23.9 µM | [4] 72.6 µM | [5] 25.6 µM | [6] 18.5 µM | [7] 20.9 µM | [8] 24.5 µM | [9] 31.4 µM | [10] 20.8 µM | [11] 18.1 µM | [13] 34.6 µM | [14] > 100 µM | [15] 24.5 µM | [16] 20.8 µM | [18] 43.1 µM

From ChEMBL document CHEMBL1201862, “PubChem BioAssay data set” (2004)
